The text below walks through data of US20230241233A1, “ORAL PHARMACEUTICAL COMPOSITIONS COMPRISING LIPID CONJUGATES” (UNIVERSITAT HEIDELBERG, priority 2020, published 2023).

The nature of series [1]: Bioavailability of octreotide SEDDS formulation in beagle dogs. As to conditions: dog, plasma, oral, 1.5 mg/animal.
Experimental: The administration of octreotide in SEDDS formulation was investigated in a study in beagle dogs at Charles River, Evreux, France (Study No 47656 PAC and 48482 PAC). […] Animals were treated with octreotide in SEDDs formulation, or octreotide alone, prepared in citrate buffer (100 mM, pH 5.5), by single oral administration via gavage. For determination of the absolute bioavailability plasma concentrations after intravenous bolus injection (in PBS) were determined. Between the cycles, a wash-out phase of one week was performed.
Plasma concentrations of all investigated peptide therapeutics were determined by quantification using a validated UPLC-MS/MS assay (according to the pertinent recommendations for bioanalytical method development of the US FDA and EMA). All assays were performed on a Waters Xevo TQ-XS triple quadrupole tandem mass spectrometer coupled to a Waters Acquity classic UPLC using C18 columns, heated electrospray ionization (ESI), and selected ion monitoring in the positive ion mode.
Series [2] can be described thus: Pharmacokinetic evaluation of octreotide lipid conjugate in beagle dogs (Charles River Study No 47656 PAC). In kind it is in vivo. The following applies: dog, plasma, conjugate dose 0 mg, oral gavage octreotide 0.12 mg/kg, vs iv bolus 0.01 mg/kg, read-out: abs. bioavailability. How it is done:
Between the cycles, a washout phase of one week was performed.
First, animals received an intravenous bolus injection of 0.01 mg/kg octreotide. The consecutive administrations were given orally by gavage. After a wash-out of one week animals #1 and #2 received 0.12 mg/kg free octreotide and animals #3 and #4 received 0.12 mg/kg octreotide with 0.3 mg/kg lipid-conjugate. After a wash-out of one week animals #1 and #2 received 0.12 mg/kg free octreotide with 1 mg/kg lipid-conjugate and animals #3 and #4 received 0.12 mg/kg octreotide with 3 mg/kg lipid-conjugate. After a wash-out of one week animals #1 and #2 received 0.12 mg/kg free octreotide with 10 mg/kg lipid-conjugate and animals #3 and #4 received 0.12 mg/kg octreotide with 30 mg/kg lipid-conjugate. After a wash-out of one week animals #1 and #2 received 0.012 mg/kg free octreotide with 1 mg/kg lipid-conjugate and animals #3 and #4 received 1.2 mg/kg octreotide with 1 mg/kg lipid-conjugate.

For the molecule `C[C@@H](O)[C@@H]1NC(=O)[C@H](CCCCN)NC(=O)[C@@H](Cc2c[nH]c3ccccc23)NC(=O)[C@H](Cc2ccccc2)NC(=O)[C@@H](NC(=O)[C@H](N)Cc2ccccc2)CSSC[C@@H](C(=O)N[C@H](CO)[C@@H](C)O)NC1=O` [octreotide], the bioavailability in series [1] and in series [2] was 2.1% in each case.
